According to US5308605A, “Diagnosis of tumors with 5-radioiodo-2'-deoxyuridine” (priority 1992, dated 1994):
Where two headings read alike, the source gives them in different places.

Legend:
[1] = humans; unincorporated IUdR; cited from earlier work
[2] = mouse; unincorporated IUdR; cited from earlier work
[3] = system: murine ovarian tumor (MOT); assay: Antineoplastic effect (survival fraction, median survival) in mouse ascites tumor; type: in vivo, C3HeB/FeJ mice
Text: 2. ^125 IUdR Is an Effective Antineoplastic Agent In A Mouse Ascites Tumor. The tumor used in these experiments is the same murine ovarian tumor described above. We have determined the median survival of mice after i.p. challenge with various tumor cell inocula.
The relatively long survival of tumor-bearing mice facilitates quantitative evaluation of tumor cell killing after treatment with ^125 IUdR and can be used to calculate a cellular survival fraction.

[4] = system: transitional cell carcinoma of the bladder; assay: Planar scintigraphy of MNU-induced bladder cancer; type: in vivo, Fisher 344 rats; details: day 3, intravesical
Experimental: The carcinogen N-methyl-N-nitrosourea (MNU), known to induce transitional cell carcinoma of the bladder, was instilled directly into the bladder lumen of 4-to-5-week old female Fisher 344 rats (20 animals) via bladder catheterization using a 22-gauge angiocatheter (1.5 mg/0.15 ml saline intravesically, every other week for a total of 4 doses). The drinking water was supplemented with a combination of trimethoprim-sulfamethoxasole, neomycin sulfate and polymixin B. Twelve to sixteen weeks after the last MNU infusion, the bladder was catheterized and emptied and [^125 I/^131 I ]IUdR (6. 4 to 10. 9 MBq [^125 I]IUdR [172 to 294 μCi] and 10.7 MBq [^131 I ]IUdR [290 μCi]) was administered through the catheter in a 100- or 200- μl volume and left in place for 2 h. The bladder contents were then withdrawn and the bladder rinsed with normal saline (5×1-ml). Nontumor-bearing control rats (16 animals) were injected by the same route with identical amounts of [^125 I/^131 I]IUdR. The drinking water of all animals was supplemented with 0. 1% potassium iodide from 48 to 72 h prior to the administration of the radiopharmaceutical up to the time of sacrifice. The tumor-bearing rats and the non-tumor bearing control rats were divided into Group A consisting of 12 tumor-bearing and 12 control rats, and Group B consisting of 8 tumor-bearing and 4 control rats. […]

[5] = system: 9 L gliosarcoma; assay: Biodistribution 40 h after injection in brain tumor-bearing rats
[6] = system: murine ovarian tumor (MOT); assay: Scintigraphic imaging of ovarian tumor-bearing mice; type: in vivo, C3HeB/FeJ mice; details: later than 1 h (2, 16, 24 hr); 300 μCi
[7] = system: 9 L gliosarcoma; assay: Scintigraphic imaging of brain tumors after intratumor injection; details: control animals; images 12-38 h
[8] = system: transitional cell carcinoma of the bladder; type: in vivo, Fisher 344 rats
Text: No carrier added [^125 I/^131 I] IUdR was synthesized as described previously, see U.S. Pat. No. 4,851,520 hereby incorporated by reference, and purified on a C18 reverse phase HPLC column. The radiochemical purity of the product was>99% as determined by TLC with specific activities of 81.40 TBq/mmol and 96.94 GBq/mmol for [^125 I] IUdR and [^131 I] IUdR, respectively.
The carcinogen N-methyl-N-nitrosourea (MNU), known to induce transitional cell carcinoma of the bladder, was instilled directly into the bladder lumen of 4-to-5-week old female Fisher 344 rats (20 animals) via bladder catheterization using a 22-gauge angiocatheter (1.5 mg/0.15 ml saline intravesically, every other week for a total of 4 doses). […]
The biodistribution studies were conducted at 48 hours and at 1 week after administration of radiolabeled IUdR in order to quantitate the in vivo distribution of the radiopharmaceutical in terms of percent injected dose per gram of tissue (%ID/g) and to derive tumor to normal tissue ratios. Various organs and tissues of interest were excised, rinsed, blotted dry, weighed, and their radioactive content was determined in a gamma counter along with that of urine, stomach contents, blood and bone marrow.

[9] = system: DNA; assay: Microautoradiography of bladder, intestine and bone marrow; type: in vivo, Fisher 344 rats
Experimental: The carcinogen N-methyl-N-nitrosourea (MNU), known to induce transitional cell carcinoma of the bladder, was instilled directly into the bladder lumen of 4-to-5-week old female Fisher 344 rats (20 animals) via bladder catheterization using a 22-gauge angiocatheter (1.5 mg/0.15 ml saline intravesically, every other week for a total of 4 doses). The drinking water was supplemented with a combination of trimethoprim-sulfamethoxasole, neomycin sulfate and polymixin B. Twelve to sixteen weeks after the last MNU infusion, the bladder was catheterized and emptied and [^125 I/^131 I ]IUdR (6. 4 to 10. 9 MBq [^125 I]IUdR [172 to 294 μCi] and 10.7 MBq [^131 I ]IUdR [290 μCi]) was administered through the catheter in a 100- or 200- μl volume and left in place for 2 h. The bladder contents were then withdrawn and the bladder rinsed with normal saline (5×1-ml). Nontumor-bearing control rats (16 animals) were injected by the same route with identical amounts of [^125 I/^131 I]IUdR. The drinking water of all animals was supplemented with 0. 1% potassium iodide from 48 to 72 h prior to the administration of the radiopharmaceutical up to the time of sacrifice. The tumor-bearing rats and the non-tumor bearing control rats were divided into Group A consisting of 12 tumor-bearing and 12 control rats, and Group B consisting of 8 tumor-bearing and 4 control rats. Group A was sacrificed 48 hours after administration of the radiopharmaceutical while Group B was sacrificed one (1) week after administration of the radiopharmaceutical.
The specificity of targeting and the DNA-incorporation of [^125 I]IUdR were determined by microautoradiography. The distribution and frequency of grains were assessed over the entire section and compared to the histopathologic findings. At the time of the biodistribution studies, the small intestine and the large intestine were quickly frozen in isopentane and liquid nitrogen. Bone marrow smears were fixed in 100% methanol. After rinsing with normal saline, the bladder was fixed in situ with 10% buffered formaldehyde, excised, and subsequently embedded in paraffin. The tissues were then sectioned (5-7 μm thickness), fixed (except for the bladder sections already fixed in vivo) and processed for autoradiography as were the bone marrow smears.
The tissue sections and bone marrow slides were coated with NTB2 emulsion (Kodak) and stored desiccated at 4° C. in light-tight boxes. After various times of emulsion exposure (up to 7 months), the autoradiographic slides were developed for 3 min in D-19 developer (Kodak) and fixed for 5 min in D-11 fixer (Kodak). Finally, the tissue sections were washed in distilled water, stained with hematoxylin/eosin, dehydrated, cleared, and mounted in Permount. Bone marrow slides were stained with Giemsa stain. Tissue and bone marrow slides were then examined under light microscopy.

O=c1[nH]c(=O)n([C@H]2C[C@H](O)[C@@H](CO)O2)cc1I [IUdR, 5-Iodo-2'-deoxyuridine]
half-life in circulation [1]: less than five
half-life in circulation [2]: less than seven

O=c1[nH]c(=O)n([C@H]2C[C@H](O)[C@@H](CO)O2)cc1I [[^131 I]IUdR, 5-iodo-2'-deoxyuridine]
decrease in survival ([3]; equivalent doses, 131I label): does not result in any decrease in survival
scintigraphic activity in normal animals [4]: virtual absence of activity in normal animals
scintigraphic activity in tumor-bearing animals [4]: only visible area of activity remaining in the tumor-bearing animals was over the region of the bladder

O=c1[nH]c(=O)n([C@H]2C[C@H](O)[C@@H](CO)O2)cc1I [^123 IUdR, 5-iodo-2'-deoxyuridine]
injected dose found in tumor ([5]; one animal, tumor occupied large portion of right brain specimen): 25 % of the injected dose
injected dose per gram, right brain (injected side), sham-operated ([5]; sham-operated controls, mean±SD): 0.09±0.02 %ID/g
injected dose per gram, right brain (injected side), tumor-bearing ([5]; tumor-bearing animals, mean±SD, P<0.05 vs sham): 0.36±0.14 %ID/g
survival fraction of tumor cells as a function of dose ([3]; 5 i.p. injections, 4 h intervals): an exponential decrease is obtained similar to that observed with the ^125 IUdR data
median survival of tumor-bearing animals ([3]; 5 i.p. injections, 4 h intervals, 24 h post tumor inoculation): prolongs median survival of the tumor-bearing animals (FIG. 7 of the incorporated patent) in a dose-dependent fashion
focal area of abdominal activity, later time points [6]: persisted only in MOT-bearing mice while it cleared from the abdomen of animals without tumor
clearance of activity from the head [7]: clearance of the activity from the head of all control animals by 12 h

O=c1[nH]c(=O)n([C@H]2C[C@H](O)[C@@H](CO)O2)cc1I [^125 IUdR, 5-iodo-2'-deoxyuridine]
tumor cell survival fraction (plateau) ([3]; seven consecutive injections): 10^-5
percent injected dose per gram of bladder, tumor-bearing vs control ([8]; 48 h): significant difference
permeation to the systemic circulation ([8]; rat, not told): very low
penetration into the bladder wall ([9]; animals with infection/inflammation): potential for radiolabeled IUdR to penetrate deep within the bladder wall
uptake in squamous metaplasia and bacteria ([9]; basal layer of squamous metaplasia, bacteria when active infection present): Uptake was also observed in the basal layer of squamous metaplasia and in bacteria when active infection was present
cell-associated silver grains in bone marrow smears ([9]; bone marrow): free of cell-associated silver grains
uptake in the urothelium of control animals ([9]; control animals): did not show uptake in the urothelium
autoradiographic uptake by the tumor ([9]; hyperplasia and papillary carcinoma stages): uptake of radiolabeled IUdR by the tumor at the early stage of tumor development, i.e. the hyperplasia stage, as well as in the later papillary carcinoma stage
silver grains in actively dividing normal epithelia ([9]; rat, in vivo): did not show the presence of silver grains
silver grains in normal urothelium ([9]; rat, in vivo): generally free of silver grains
DNA incorporation by abnormal urothelium vs normal ([9]; tumor-bearing animals): always significantly higher
